From PubChem BioAssay AID651717 (Broad Institute, 2012)

test system: mESC Bmi1-luciferase reporter, firefly/renilla ratio, 24 h; assay: Bmi1-luciferase reporter activators in mESC, dose response, esBAF inhibitor project, mouse embryonic stem cells, cherry-pick (AID 651717);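 further: luciferase knocked into Bmi1 locus with EF-1a renilla as cell number control; rising ratio signals esBAF inhibition which derepresses Bmi1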

| SMILES | AC40 |
| --- | --- |
| CN(C)c1ccccc1-c1csc(N2CCC(C(N)=O)CC2)n1 | < 0.26 µM |
| Cn1c(/N=C(\N)c2ccccc2)nc2ccccc21 | 0.587 µM |
| Cc1ccc(NC(=O)Nc2ccc(F)cc2)cc1Cl | 3.4 µM |
| CC(C)Cc1cc(C(=O)Nc2ccc(Br)cc2)no1 | 2.96 µM |
| CC(C)c1ccc(NC(=O)c2cccnc2)cc1 | 2.6 µM |
| O=C(CCN1C(=O)/C(=C/C=C/c2ccccc2)SC1=S)Nc1cccnc1 | 2.35 µM |
| O=c1c(-c2nc3ccccc3s2)cccn1Cc1ccc(Cl)cc1 | 3.09 µM |
| Cc1ccc(NC(=O)CN2C(=O)N/C(=C/c3ccccc3OCc3cccc(C(=O)O)c3)C2=O)cc1 | 2.65 µM |
| CN(C)c1ccc(C=Cc2nccc3ccccc23)cc1 | 1.65 µM |
| Cc1sc(NC(=O)c2cccs2)nc1-c1ccccc1 | 5.47 µM |
| Cc1cc(N2CCOCC2)nc2ccc(NC(=O)CCC(=O)N3CCN(c4ccccc4)CC3)cc12 | 11 µM |
| COc1ccc(-c2coc3cc(OC(C)=O)ccc3c2=S)cc1 | 0.794 µM |
| COC(=O)c1ccc2c(C)c(C3(O)CCCCC3)[nH]c2c1 | 7.47 µM |
| O=C(Nc1ccc(N2CCCC2)cc1)c1cccc(Cl)c1Cl | 28.2 µM |
| COc1ccc(N=Cc2c(O)[nH]c3ccccc23)cc1OC | 3.05 µM |
| CC(C)c1ccc(CNc2ncc(Br)cn2)cc1 | 4.25 µM |
| Cc1ccc(OCc2cc(C(=O)N3CCN(C4CCCCC4)CC3)no2)cc1C | 10 µM |
| Cc1nn(Cc2c(F)c(F)c(F)c(F)c2F)c(C)c1NC(=O)c1ccc(COc2cc(Cl)ccc2Cl)cc1 | 3.23 µM |
| CC(C)(C)C(=O)N1CCN(c2nc3ccccc3s2)CC1 | 0.702 µM |
| CCn1c(C)nc2cc(C(=O)NN=Cc3ccccc3OC(F)F)ccc21 | 1.96 µM |
| Cc1ccc2nc(-c3cccc(S(=O)(=O)N4CCCC4)c3)cn2c1 | 23.2 µM |
| Cn1c(CSc2ccccc2)c(C#N)c2ccccc21 | 6.77 µM |

| SMILES | AC40 |
| --- | --- |
| Cn1ccc2c(-c3ccc(C(=O)O)cc3)cc3c(c21)C1CCC3C1 (stereo not drawn) | 4.09 µM |
| Nc1cc(OCc2ccccc2)ccc1OCc1ccccc1 | 5.17 µM |
| Cc1c(C(=O)N2CCCc3ccccc32)sc2nc(-c3ccccc3)cn12 | 12.5 µM |
| COc1ccc(C2=NN(C(=O)c3ccccc3C(=O)O)C(c3ccccc3O)C2)cc1 (stereo not drawn) | 6.57 µM |
| CNc1cnc(-c2ccc(F)c(F)c2F)cn1 | 1.54 µM |
| COc1ccc(NC(=O)c2cc(F)cc(F)c2)cc1Cl | 4.77 µM |
| O=c1c2ccccc2oc2cc(-c3ccc4cc[nH]c4c3)ccc12 | 1.46 µM |
| COc1ccc(Nc2cc(C)c3c(O)cccc3n2)cc1 | 3.84 µM |
| Cc1ccc(C(=O)N2CCc3ccccc32)cc1C | 3.55 µM |
| CC(C)(C)Nc1nc(Cl)nc(Nc2ccccc2)n1 | 2.09 µM |
| Cc1ccc(Nc2nc(-c3cccnc3)cs2)cc1Cl | 0.961 µM |
| CC(=O)n1nc(-c2ccccc2)nc1NCc1ccc(N(C)C)cc1 | 3.41 µM |
| CC1CCc2sc(C(=O)NC3CCCCC3)cc2C1 (stereo not drawn) | 1.08 µM |
| Cc1ccc(OCc2cc(C(=O)N3CCC(c4ccccc4Cl)C3)no2)cc1C (stereo not drawn) | 7.33 µM |
| CCCN1CCN(CCCNC(=O)c2ccc3nc(N4CCCCC4)sc3c2)CC1 | 13.3 µM |
| Cc1ccc(C)c(OCc2nc3ccccc3[nH]2)c1 | 5.29 µM |
| O=C(Nc1ccc(F)cc1)c1ccccc1 | 7.36 µM |
| COc1ccc(-c2cn3c(C)c(C(=O)NC(C)(C)C)sc3n2)cc1 | 1.02 µM |
| c1ccc(-c2nnc3oc(-c4cccs4)nn23)cc1 | 5.88 µM |
| COc1ccc(OCc2cc(C(=O)N(Cc3nccn3C)C(C)C)no2)c2ccccc12 | 3.93 µM |
| CSc1ccc(/C=N/NC(=O)c2ccccc2Cl)cc1 | 6.47 µM |
| C=CCn1cccc(C(=O)Nc2ccc(F)cc2)c1=O | 7.32 µM |

| SMILES | AC40 |
| --- | --- |
| CCCCNc1ccc2c(c1)C1CC2CCN1C(=O)OCc1ccccc1 (stereo not drawn) | 4.73 µM |
| CSCc1nc2sc(C(=O)Nc3nc(C)cs3)c(C)c2c(=O)[nH]1 | 4.19 µM |
| O=C(c1ccc2ccccc2c1)N1CCN(Cc2ccccc2)CC1 | 9.83 µM |
| Cc1ccc(C)c(NC(=O)c2cc(-c3cc(C)c(C)cc3O)n[nH]2)c1 | 3.77 µM |
| C/C(=N\NC(=O)c1cccs1)c1ccc2ccccc2c1 | 12 µM |
| Cc1ccc2c(COC(=O)C34CC5CC(CC(C5)C3)C4)cc(=O)oc2c1 | 3.95 µM |
| COc1cc(C)ccc1OCc1cc(C(=O)N2CCN(C3CCCCC3)CC2)no1 | 5.3 µM |
| COc1cccc(NC(=O)C(=O)NCCC2CCCCN2S(=O)(=O)c2cccs2)c1 (stereo not drawn) | 3.86 µM |
| NNC(=O)c1nc2ccccc2s1 | 4.4 µM |
| COc1ccc(Cc2nc3ccc(C(=O)NCCCSC)cc3o2)cc1OC | 4.92 µM |
| Cc1ccc(-c2nnn(CC(=O)N(Cc3cccs3)C(C(=O)NC3CCCC3)c3ccncc3)n2)cc1 (stereo not drawn) | 34.5 µM |
| O=C(O)c1ccc2c(c1)C(=O)N(CCc1c[nH]c3ccccc13)C2=O | 5.77 µM |
| COc1ccccc1CNC(=O)C[C@H]1CC[C@H]2[C@@H](COC[C@@H](O)CN2C(=O)Nc2ccc(Cl)cc2)O1 | 1.05 µM |
| COc1cccc(NC(=O)CN(C)C(=O)CNC(=O)c2sc3ccccc3c2Cl)c1 | 4.99 µM |
| CCCC1c2ccc(C)n2CCN1C(=O)Nc1ccccc1Cl (stereo not drawn) | 6.07 µM |
| Cc1ccc(CN2CC(C(=O)Nc3cc(C)ccn3)CC2=O)cc1 (stereo not drawn) | 1.48 µM |
| Cc1cccc(-n2nnc(C(=O)Nc3ccc(F)cc3)c2N)c1 | 0.798 µM |
| COC(=O)c1sccc1NC(=O)c1ccc(OC)cc1 | 6.81 µM |
| Clc1ccc(/C=N/Nc2nc(Cl)nc3ccccc23)cc1 | 1.35 µM |
| COc1ccc(C(=O)NCc2ccc(-c3nc4ccccc4s3)cc2)cc1 | 6.13 µM |
| COc1ccc(CN(C(=O)CSc2nnc(-c3c[nH]c4ccccc34)o2)c2ccc(F)cc2)cc1OC | 7.04 µM |
| O=C(Nc1cccc2ccccc12)OCc1ccccc1 | 3.96 µM |

| SMILES | AC40 |
| --- | --- |
| O=C(Nc1ccc(Cl)cc1Cl)c1csc(-c2cccnc2)n1 | 6.82 µM |
| NCCNC(=O)c1c(NC(=O)c2ccccc2)sc2c1CCCC2 | 34.4 µM |
| Cc1ccc(C(=O)Cc2ccccc2)c(O)c1 | 6.34 µM |
| CSc1ccccc1NC(=O)c1ccc(N2CCCC2=O)cc1 | 2.01 µM |
| COc1cccc(/C=N/n2c(N)nc3ccccc32)c1OC | 3.21 µM |
| CNC(=O)c1ccc(-c2cc3onc(-c4ccccc4)c3c(=O)n2C)cc1 | 1.16 µM |
| CC(C)CN=c1cc(-c2ccccc2)oc2ccc(Cl)cc12 | 2.27 µM |
| COc1ccc(C(=O)/C=C(\C)Nc2ccc3c(c2)OCO3)cc1 | 1.85 µM |
| COc1cc2ccccc2cc1C(=O)Nc1ccccc1C | 1.85 µM |
| CCC(C)NC(=O)c1cc(CC(C)C)on1 (stereo not drawn) | 6.83 µM |
| CCn1c(COc2ccc(OC)cc2)nc2ccccc21 | 2.81 µM |
| CO[C@H]1CN(C)C(=O)c2cc(NC(=O)Nc3ccc4c(c3)OCO4)ccc2OC[C@@H](C)NC[C@H]1C | 8.26 µM |
| COc1ccc(C(=O)Nc2cc3c4c(c2)CC(=O)N4CCC3)c(OC)c1 | 5.13 µM |
| CCN(CC)C(=O)Oc1ccc2c(=O)c(-c3ccc(OC)cc3)coc2c1 | 3.7 µM |
| Cc1csc(-c2ccc3cc(Cl)cc(Cl)c3n2)n1 | 5.82 µM |
| CCCC(=O)Nc1sc2c(c1C#N)CCCC2 | 19 µM |
| COc1cccc(NC(=O)C(=O)NCCC2CCCCN2S(=O)(=O)c2ccccc2)c1 (stereo not drawn) | 2.93 µM |
| O=C1Nc2ccccc2N=C(c2ccc3c(c2)OCO3)C1N(C(=O)c1ccc2ccccc2c1)C1CC1 (stereo not drawn) | 1.26 µM |
| c1ccc(-c2noc(CC3CCCCC3)n2)cc1 | 4.12 µM |
| Cc1cc(-c2nnco2)c(C)n1-c1ccccc1 | 6.01 µM |
| Nc1ccc2c(c1)C(=O)c1ccc(N)cc1-2 | 0.55 µM |
| c1ccc(Cn2cnc3ccccc32)cc1 | 0.984 µM |
